Source: article PMC12064818, “A general assay platform to study protein pharmacology using ligand-dependent structural dynamics” (Nature Communications, 2025)

Molecular target: T1, FLuc-C-HiBiT (Photinus pyralis, UniProt P08659)
T1 construct: firefly luciferase with C-terminal HiBiT tag, E. coli expressed
Assay: biochemical
Settings: enzyme activity, 10 uM ATP; read-out: IC50 or SDR50 (mM) / FLuc E

T1 sequence (P08659 whole entry, looked up): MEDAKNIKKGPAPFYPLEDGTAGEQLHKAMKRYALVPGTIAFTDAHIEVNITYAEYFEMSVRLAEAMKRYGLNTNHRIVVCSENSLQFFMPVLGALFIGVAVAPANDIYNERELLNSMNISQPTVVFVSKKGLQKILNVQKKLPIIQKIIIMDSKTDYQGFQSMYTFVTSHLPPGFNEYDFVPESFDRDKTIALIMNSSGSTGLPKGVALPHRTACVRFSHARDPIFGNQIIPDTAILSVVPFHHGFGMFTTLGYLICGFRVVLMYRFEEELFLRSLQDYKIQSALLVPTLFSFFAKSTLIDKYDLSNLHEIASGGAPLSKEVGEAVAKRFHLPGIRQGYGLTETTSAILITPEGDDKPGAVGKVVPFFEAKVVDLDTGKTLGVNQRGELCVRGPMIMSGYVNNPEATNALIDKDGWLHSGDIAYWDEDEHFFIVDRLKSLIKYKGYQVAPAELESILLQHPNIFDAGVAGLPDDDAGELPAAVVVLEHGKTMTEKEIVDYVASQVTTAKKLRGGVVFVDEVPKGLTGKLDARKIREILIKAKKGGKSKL

CC(CNC(=O)C1CCN(C(=O)c2ncn3c2COC(c2ccccc2)C3)CC1)c1ccccc1 (stereo not shown) [compound 00449795]
IC50: 0.00248 mM
